Tests used:
Lipophilicity comparison = format: physicochemical; settings: compared with MCC950
AIM2 inflammasome = target: T1, AIM2 inflammasome (Mus musculus, UniProt Q91VJ1); test: IL-1β production in mouse BMDMs after AIM2 activation (LPS + poly(dA:dT)); format: cell-based; settings: mBMDMs, concentrations up to 10 µM
T1 construct: host or cells: mouse BMDMs, LPS + transfected poly(dA:dT)
T1 sequence (Q91VJ1 1-354): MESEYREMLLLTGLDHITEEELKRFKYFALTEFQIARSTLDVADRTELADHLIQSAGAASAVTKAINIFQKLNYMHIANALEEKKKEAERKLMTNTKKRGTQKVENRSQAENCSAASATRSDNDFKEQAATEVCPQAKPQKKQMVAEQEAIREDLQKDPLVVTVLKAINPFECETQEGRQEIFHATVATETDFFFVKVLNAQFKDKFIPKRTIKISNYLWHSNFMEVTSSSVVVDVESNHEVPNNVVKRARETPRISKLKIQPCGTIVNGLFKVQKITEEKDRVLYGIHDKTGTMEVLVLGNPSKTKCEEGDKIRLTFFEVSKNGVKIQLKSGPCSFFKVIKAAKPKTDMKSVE
Method: Cell viability was determined by addition of an equal volume of CellTiter-Glo® 2.0 reagent (Promega) to the remaining cells/supernatant in each well. Intracellular Caspase-1 activity was measured using the Caspase-Glo® assay (Promega) according to the manufacturer’s instructions. The biochemical capsase-1 assay was conducted at Reaction Biology Corporation (Malvern, USA). Human IL-1β, IL-1α, and TNFα and mouse IL-1β were measured in cell culture supernatants using homogeneous time resolved fluorescence assay kits (HTRF, Cisbio, Codolet, France). Human IL-18 was measured in cell culture supernatants using an ELISA kit (R&D Systems, Minneapolis, MN, USA). Plasma IL-1β concentrations were determined by Quantikine® ELISA (R&D Systems, Minneapolis, MN).
4H). MS: m/z 433.1 (M+H+). […]
flagellin, prepared in Opt iMEM and combined with Lipofectamine 2000. […] After priming Nlrp3 -/- mBMDMs with 100 ng/mL of LPS for 3- 5 h, cells were exposed to 100 ng/mL L18- MDP and incubated overnight.At the end of the incubation period of the assays above, plates were briefly centri fuged and hal f of the cell culture supern atant remo ved and either analysed i mmediately or stored at - 80°C for subs equent cytokine […]

lipophilicity (Lipophilicity comparison): lower lipophilicity than MCC950
inhibition of IL-1β production after AIM2 activation (AIM2 inflammasome): no inhibition of IL-1β production
Compound: CO[C@@H]1COc2c(S(=O)(=O)NC(=O)Nc3c4c(cc5c3CCC5)CCC4)cnn2C1 [JT002]
